Patent US20230150974A1 (Foghorn Therapeutics Inc., priority 2020, published 2023)
Counter-ions that a name gives are not always drawn.

Tests used:
[1] = biological target: T1, HiBiT-BRM (Homo sapiens, UniProt P51531); experiment: HiBiT-BRM cell-based degradation assay (Nano-Glo HiBiT Lytic Detection); conditions: HeLa cells expressing HiBiT-BRM, 24 h; for DC50: read-out: BRM HiBit Degradation IC50
T1 construct: expressed in transfected cells
Method in brief: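 Luminescence from HiBiT–LgBiT complementation in lysates of a stable HiBiT-BRM HeLa line measured after 24 h compound exposure. Degradation expressed as percent relative to DMSO-treated cells and cells given 2 μM of a known BRM/BRG1 degrader.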

[2] = biological target: T2, HiBit-BRG1 (Homo sapiens, UniProt P51532); experiment: HiBit-BRG1 cell-based degradation assay (Nano-Glo HiBiT Lytic Detection); conditions: HeLa cells expressing HiBit-BRG1 and LgBit, 24 h; for DC50: read-out: BRG1 HiBit Degradation IC50; for Dmax: read-out: BRG1 HiBit Degradation Maximum (%)
T2 construct: expressed in transfected cells
T2 sequence (P51532 whole entry): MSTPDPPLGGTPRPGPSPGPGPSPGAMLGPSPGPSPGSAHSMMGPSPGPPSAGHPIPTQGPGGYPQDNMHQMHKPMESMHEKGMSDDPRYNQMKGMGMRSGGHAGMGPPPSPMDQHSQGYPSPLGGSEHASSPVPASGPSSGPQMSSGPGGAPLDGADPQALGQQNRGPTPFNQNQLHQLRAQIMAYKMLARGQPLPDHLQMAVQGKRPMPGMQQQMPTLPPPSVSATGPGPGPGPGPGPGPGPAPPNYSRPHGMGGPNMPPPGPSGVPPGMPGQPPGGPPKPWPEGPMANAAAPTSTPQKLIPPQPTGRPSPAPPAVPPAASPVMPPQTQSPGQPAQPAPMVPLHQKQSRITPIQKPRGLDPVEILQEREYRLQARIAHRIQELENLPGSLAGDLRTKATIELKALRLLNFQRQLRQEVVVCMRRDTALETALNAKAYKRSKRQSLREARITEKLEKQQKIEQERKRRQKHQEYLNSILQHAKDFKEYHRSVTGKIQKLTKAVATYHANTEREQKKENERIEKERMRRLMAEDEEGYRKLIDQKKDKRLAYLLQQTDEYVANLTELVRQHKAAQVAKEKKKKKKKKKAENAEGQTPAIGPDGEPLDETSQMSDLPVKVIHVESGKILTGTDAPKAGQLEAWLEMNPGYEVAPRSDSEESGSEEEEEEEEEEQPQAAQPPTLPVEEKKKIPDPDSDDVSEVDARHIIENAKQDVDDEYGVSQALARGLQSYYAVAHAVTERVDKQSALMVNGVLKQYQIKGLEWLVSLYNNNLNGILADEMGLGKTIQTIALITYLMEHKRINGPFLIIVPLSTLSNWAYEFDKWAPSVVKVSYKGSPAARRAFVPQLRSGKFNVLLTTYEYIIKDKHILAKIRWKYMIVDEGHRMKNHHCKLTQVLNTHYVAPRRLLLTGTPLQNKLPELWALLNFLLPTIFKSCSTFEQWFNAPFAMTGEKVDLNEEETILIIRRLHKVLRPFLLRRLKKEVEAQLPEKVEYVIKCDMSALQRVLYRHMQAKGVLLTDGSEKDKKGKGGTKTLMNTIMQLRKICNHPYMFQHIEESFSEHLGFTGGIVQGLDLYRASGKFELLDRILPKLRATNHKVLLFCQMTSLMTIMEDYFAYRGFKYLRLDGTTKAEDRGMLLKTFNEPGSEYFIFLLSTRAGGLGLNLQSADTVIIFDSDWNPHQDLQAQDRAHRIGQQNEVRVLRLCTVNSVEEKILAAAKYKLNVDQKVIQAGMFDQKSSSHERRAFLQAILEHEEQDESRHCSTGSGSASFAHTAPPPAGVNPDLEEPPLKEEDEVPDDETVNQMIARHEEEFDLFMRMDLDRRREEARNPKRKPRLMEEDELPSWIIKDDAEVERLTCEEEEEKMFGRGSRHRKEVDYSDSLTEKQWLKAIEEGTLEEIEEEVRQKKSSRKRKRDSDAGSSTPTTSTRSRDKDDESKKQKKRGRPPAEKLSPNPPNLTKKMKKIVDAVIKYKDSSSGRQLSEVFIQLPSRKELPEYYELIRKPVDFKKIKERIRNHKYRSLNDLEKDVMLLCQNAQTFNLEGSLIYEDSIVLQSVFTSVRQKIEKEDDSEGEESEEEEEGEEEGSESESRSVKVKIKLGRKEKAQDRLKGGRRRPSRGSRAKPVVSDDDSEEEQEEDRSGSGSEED
Method in brief: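 HeLa cells stably expressing HiBit-BRG1 plus LgBit; compound exposure 24 h; Nano-Glo HiBiT lytic luminescence; % degradation vs DMSO (0%) and 2 μM standard BRM/BRG1 degrader (100%).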

T1 sequence (P51531 whole entry): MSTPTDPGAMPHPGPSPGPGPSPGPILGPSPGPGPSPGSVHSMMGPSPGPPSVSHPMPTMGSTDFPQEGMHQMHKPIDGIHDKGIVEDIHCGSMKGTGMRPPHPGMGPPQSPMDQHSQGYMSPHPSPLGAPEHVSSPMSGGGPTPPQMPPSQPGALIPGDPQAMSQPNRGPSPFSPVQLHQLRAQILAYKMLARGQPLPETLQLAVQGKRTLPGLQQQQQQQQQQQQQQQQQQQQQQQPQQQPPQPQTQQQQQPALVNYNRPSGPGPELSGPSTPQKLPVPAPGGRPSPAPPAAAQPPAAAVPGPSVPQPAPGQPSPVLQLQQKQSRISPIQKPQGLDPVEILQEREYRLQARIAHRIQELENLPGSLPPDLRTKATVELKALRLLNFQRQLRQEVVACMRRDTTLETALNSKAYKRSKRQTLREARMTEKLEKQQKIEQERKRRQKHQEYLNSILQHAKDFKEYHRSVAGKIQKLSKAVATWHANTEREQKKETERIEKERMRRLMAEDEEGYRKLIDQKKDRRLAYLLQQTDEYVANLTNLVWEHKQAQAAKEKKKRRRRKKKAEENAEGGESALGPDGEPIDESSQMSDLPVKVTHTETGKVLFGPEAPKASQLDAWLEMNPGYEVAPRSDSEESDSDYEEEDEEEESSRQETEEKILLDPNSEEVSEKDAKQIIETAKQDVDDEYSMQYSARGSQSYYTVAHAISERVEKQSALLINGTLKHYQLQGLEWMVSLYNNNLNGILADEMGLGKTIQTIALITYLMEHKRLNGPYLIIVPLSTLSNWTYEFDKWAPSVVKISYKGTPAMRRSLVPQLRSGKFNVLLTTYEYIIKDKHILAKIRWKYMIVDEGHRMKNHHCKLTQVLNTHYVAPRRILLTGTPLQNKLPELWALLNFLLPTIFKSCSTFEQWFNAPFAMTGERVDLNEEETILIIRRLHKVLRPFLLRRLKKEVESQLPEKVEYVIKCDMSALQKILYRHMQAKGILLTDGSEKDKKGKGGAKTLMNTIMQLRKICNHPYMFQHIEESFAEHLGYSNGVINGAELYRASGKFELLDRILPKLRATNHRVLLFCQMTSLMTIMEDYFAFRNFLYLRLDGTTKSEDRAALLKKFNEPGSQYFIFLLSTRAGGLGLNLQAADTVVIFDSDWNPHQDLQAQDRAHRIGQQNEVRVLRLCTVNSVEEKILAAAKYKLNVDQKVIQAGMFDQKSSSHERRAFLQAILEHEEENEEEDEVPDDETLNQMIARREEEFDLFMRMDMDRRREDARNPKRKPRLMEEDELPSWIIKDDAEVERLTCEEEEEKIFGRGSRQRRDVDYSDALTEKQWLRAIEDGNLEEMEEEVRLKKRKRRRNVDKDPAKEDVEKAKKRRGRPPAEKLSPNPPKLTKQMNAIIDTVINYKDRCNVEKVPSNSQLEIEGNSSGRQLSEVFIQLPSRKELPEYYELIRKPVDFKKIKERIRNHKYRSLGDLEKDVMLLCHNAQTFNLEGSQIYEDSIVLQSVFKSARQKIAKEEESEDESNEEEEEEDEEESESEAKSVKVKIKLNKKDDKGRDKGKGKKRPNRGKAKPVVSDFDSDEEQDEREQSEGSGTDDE

Q: Which results are given for `Nc1nnc(-c2ccccc2O)cc1OCCc1ccc(CNC(=O)CCCOc2cccc3c2C(=O)N(C2CCC(=O)NC2=O)C3=O)cc1` (centres unmarked) [Compound 65, N-[[4-(2-[[3-amino-6-(2-hydroxyphenyl)pyridazin-4-yl]oxy]ethyl)phenyl]methyl]-4-[[2-(2,6-dioxopiperidin-3-yl)-1,3-dioxoisoindol-4-yl]oxy]butanamide]?
A: BRM HiBit Degradation Maximum (%) [1]: C (“C” indicates maximum degradation <50%); DC50 [1]: > 1000 nM; DC50 [2]: > 1000 nM; Dmax [2]: < 50%

Q: How did the “BRM HiBit Degradation Maximum (%)” value [1] turn out when `Nc1nnc(-c2ccccc2O)cc1OCCc1ccc(CNC(=O)CCCCNc2cccc3c2CN(C2CCC(=O)NC2=O)C3=O)cc1` (centres unmarked) [Compound 2, N-(4-(2-((3-amino-6-(2-hydroxyphenyl)pyridazin-4-yl)oxy)ethyl)benzyl)-5-((2-(2,6-dioxopiperidin-3-yl)-1-oxoisoindolin-4-yl)amino)pentanamide] was run?
A: The value was “C (“C” indicates maximum degradation <50%)”.

Q: What about the DC50 [1] of the same compound?
A: The DC50 was over 1000 nM.

Q: And the DC50 [2]?
A: The DC50 was over 1000 nM.

Q: How did the “BRM HiBit Degradation Maximum (%)” value [1] turn out when `Nc1nnc(-c2ccccc2O)cc1OCCc1ccc(CNC(=O)CCCCNc2ccc3c(c2)C(=O)N(C2CCC(=O)NC2=O)C3=O)cc1` (centres unmarked) [Compound 154, N-(4-(2-((3-amino-6-(2-hydroxyphenyl)pyridazin-4-yl)oxy)ethyl)benzyl)-5-((2-(2,6-dioxopiperidin-3-yl)-1,3-dioxoisoindolin-5-yl)amino)pentanamide] was run?
A: Its value is “C (“C” indicates maximum degradation <50%)”.

Q: What about the DC50 [1] of the same compound?
A: Its DC50 is over 1000 nM.

Q: And the DC50 [2]?
A: The DC50 was over 1000 nM.

Q: And the Dmax [2]?
A: Its Dmax is under 50%.

Q: For `CCN(CCc1ccc(C(=O)NCCCCCCCCCC(=O)N[C@H](C(=O)N2C[C@H](O)C[C@H]2C(=O)NCc2ccc(-c3scnc3C)cc2)C(C)(C)C)cc1)c1cc(-c2ccccc2O)nnc1N` (racemic) [Compound 144, (2S,4R)-1-((S)-2-(10-(4-(2-((3-amino-6-(2-hydroxyphenyl)pyridazin-4-yl)(ethyl)amino)ethyl)benzamido)decanamido)-3,3-dimethylbutanoyl)-4-hydroxy-N-(4-(4-methylthiazol-5-yl)benzyl)pyrrolidine-2-carboxamide], which “BRM HiBit Degradation Maximum (%)” value [1] is on record?
A: The value was “A (“A” indicates maximum degradation ≥75%)”.

Q: What about the DC50 [1] of the same compound?
A: Its DC50 is over 100 nM.

Q: What about the DC50 [2] of the same compound?
A: Its DC50 is over 1000 nM.

Q: What about the Dmax [2] of the same compound?
A: The Dmax was under 50%.

Q: For `Cc1ncsc1-c1ccc([C@H](C)NC(=O)[C@@H]2C[C@@H](O)CN2C(=O)[C@@H](c2cc(OCCN3CC(C(=O)NCc4ccc(CCOc5cc(-c6ccccc6O)nnc5N)cc4)C3)no2)C(C)C)cc1` [Compound 178, (2S,4R)-1-((R)-2-(3-(2-(3-((4-(2-((3-amino-6-(2-hydroxyphenyl)pyridazin-4-yl)oxy)ethyl)benzyl)carbamoyl)azetidin-1-yl)ethoxy)isoxazol-5-yl)-3-methylbutanoyl)-4-hydroxy-N-((S)-1-(4-(4-methylthiazol-5-yl)phenyl)ethyl)pyrrolidine-2-carboxamide], which “BRM HiBit Degradation Maximum (%)” value [1] is on record?
A: Its value is “A (“A” indicates maximum degradation ≥75%)”.

Q: And the DC50 [1]?
A: Its DC50 is over 100 nM.

Q: What about the DC50 [2] of the same compound?
A: Its DC50 is over 100 nM.

Q: And the Dmax [2]?
A: The Dmax was over 75%.

Q: How did the “BRM HiBit Degradation Maximum (%)” value [1] turn out when `CN(CCNC(=O)COc1cccc2c1C(=O)N(C1CCC(=O)NC1=O)C2=O)CCNC(=O)CN1CCN(c2cc(-c3ccccc3O)nnc2N)CC1` (centres unmarked) [Compound 104, N-(2-[[2-(2-[4-[3-amino-6-(2-hydroxyphenyl)pyridazin-4-yl]piperazin-1-yl]acetamido)ethyl](methyl)amino]ethyl)-2-[[2-(2,6-dioxopiperidin-3-yl)-1,3-dioxo-2,3-dihydro-1H-isoindol-4-yl]oxy]acetamide] was run?
A: The value was “C (“C” indicates maximum degradation <50%)”.

Q: And the DC50 [1]?
A: The DC50 was over 1000 nM.

Q: What about the DC50 [2] of the same compound?
A: Its DC50 is over 1000 nM.

Q: And the Dmax [2]?
A: Its Dmax is under 50%.

Q: What does the source list for `Cc1ncsc1-c1ccc([C@H](C)NC(=O)[C@@H]2C[C@@H](O)CN2C(=O)[C@@H](NC(=O)CCCCCCCCCCCCCCNC(=O)c2ccc(CCOc3cc(-c4ccccc4O)nnc3N)cc2)C(C)(C)C)cc1` [Compound 254, (2S,4R)-1-((S)-2-(15-(4-(2-((3-amino-6-(2-hydroxyphenyl)pyridazin-4-yl)oxy)ethyl)benzamido)pentadecanamido)-3,3-dimethylbutanoyl)-4-hydroxy-N-((S)-1-(4-(4-methylthiazol-5-yl)phenyl)ethyl)pyrrolidine-2-carboxamide]?
A: BRM HiBit Degradation Maximum (%) [1]: B (“B” indicates maximum degradation ≥50%); DC50 [1]: > 10 nM; DC50 [2]: > 1000 nM; Dmax [2]: < 50%

Q: What does the source list for `Nc1nnc(-c2ccccc2O)cc1OCCc1ccc(C(=O)NCCCC(=O)NCc2ccc(S(=O)(=O)Nc3cccc4c(Cl)c[nH]c34)cc2)cc1` [Compound 16, 4-[[4-(2-[[3-amino-6-(2-hydroxyphenyl)pyridazin-4-yl]oxy]ethyl)phenyl]formamido]-N-([4-[(3-chloro-1H-indol-7-yl)sulfamoyl]phenyl]methyl)butanamide]?
A: BRM HiBit Degradation Maximum (%) [1]: C (“C” indicates maximum degradation <50%); DC50 [1]: > 1000 nM; DC50 [2]: > 1000 nM; Dmax [2]: < 50%

Q: How did the “BRM HiBit Degradation Maximum (%)” value [1] turn out when `CN(CCc1ccc(CNCCN2CCN(c3cccc4c3C(=O)N(C3CCC(=O)NC3=O)C4=O)CC2)cc1)c1cc(-c2ccccc2O)nnc1N` (centres unmarked) [Compound 160, 4-(4-(2-((4-(2-((3-amino-6-(2-hydroxyphenyl)pyridazin-4-yl)(methyl)amino)ethyl)benzyl)amino)ethyl)piperazin-1-yl)-2-(2,6-dioxopiperidin-3-yl)isoindoline-1,3-dione diformate] was run?
A: The value was “B (“B” indicates maximum degradation ≥50%)”.

Q: And the DC50 [1]?
A: The DC50 was over 1000 nM.

Q: And the DC50 [2]?
A: Its DC50 is over 1000 nM.

Q: And the Dmax [2]?
A: The Dmax was over 50%.

Q: With `Cc1ncsc1-c1ccc(CNC(=O)[C@@H]2C[C@@H](O)CN2C(=O)[C@@H](NC(=O)CCCCCCCCC(=O)NCc2ccc(CCNc3cc(-c4ccccc4O)nnc3N)cc2)C(C)(C)C)cc1` [Compound 140, N′-[[4-(2-[[3-amino-6-(2-hydroxyphenyl)pyridazin-4-yl]amino]ethyl)phenyl]methyl]-N-[(2S)-1-[(2S,4R)-4-hydroxy-2-([[4-(4-methyl-1,3-thiazol-5-yl)phenyl]methyl]carbamoyl)pyrrolidin-1-yl]-3,3-dimethyl-1-oxobutan-2-yl]decanediamide] as the compound, how does the “BRM HiBit Degradation Maximum (%)” value [1] read?
A: Its value is “A (“A” indicates maximum degradation ≥75%)”.

Q: What about the DC50 [1] of the same compound?
A: The DC50 was over 100 nM.

Q: What about the DC50 [2] of the same compound?
A: Its DC50 is over 1000 nM.

Q: And the Dmax [2]?
A: Its Dmax is under 50%.

Q: Which results are given for `Nc1nnc(-c2ccccc2O)cc1OCCc1ccc(CN2CC(N3CCN(c4cccc5c4C(=O)N(C4CCC(=O)NC4=O)C5=O)CC3)C2)cc1` (centres unmarked) [Compound 143, 4-(4-(1-(4-(2-((3-amino-6-(2-hydroxyphenyl)pyridazin-4-yl)oxy)ethyl)benzyl)azetidin-3-yl)piperazin-1-yl)-2-(2,6-dioxopiperidin-3-yl)isoindoline-1,3-dione]?
A: BRM HiBit Degradation Maximum (%) [1]: C (“C” indicates maximum degradation <50%); DC50 [1]: > 1000 nM; DC50 [2]: > 1000 nM; Dmax [2]: < 50%

Q: What does the source list for `Cc1ncsc1-c1ccc(CNC(=O)[C@@H]2C[C@@H](O)CN2C(=O)[C@@H](NC(=O)CCCCCCCCCNC(=O)c2ccc(CCOc3cc(-c4ccccc4O)nnc3N)cc2)C(C)C)cc1` [Compound 170, (2S,4R)-1-((10-(4-(2-((3-amino-6-(2-hydroxyphenyl)pyridazin-4-yl)oxy)ethyl)benzamido)decanoyl)-L-valyl)-4-hydroxy-N-(4-(4-methylthiazol-5-yl)benzyl)pyrrolidine-2-carboxamide]?
A: BRM HiBit Degradation Maximum (%) [1]: C (“C” indicates maximum degradation <50%); DC50 [1]: > 1000 nM; DC50 [2]: > 1000 nM; Dmax [2]: < 50%

Q: Which “BRM HiBit Degradation Maximum (%)” value [1] does the source give for `CN(CCCCCOc1cccc2c1C(=O)N(C1CCC(=O)NC1=O)C2=O)Cc1ccc(CCN(C)c2cc(-c3ccccc3O)nnc2N)cc1` (centres unmarked) [Compound 145, 4-((5-((4-(2-((3-amino-6-(2-hydroxyphenyl)pyridazin-4-yl)(methyl)amino)ethyl)benzyl)(methyl)amino)pentyl)oxy)-2-(2,6-dioxopiperidin-3-yl)isoindoline-1,3-dione formate] here?
A: The value was “C (“C” indicates maximum degradation <50%)”.

Q: What about the DC50 [1] of the same compound?
A: Its DC50 is over 1000 nM.

Q: And the DC50 [2]?
A: Its DC50 is over 1000 nM.

Q: And the Dmax [2]?
A: The Dmax was under 50%.

Q: How did the “BRM HiBit Degradation Maximum (%)” value [1] turn out when `Cc1ncsc1-c1ccc([C@H](C)NC(=O)[C@@H]2C[C@@H](O)CN2C(=O)[C@@H](c2cc(OCCNCCC(=O)NCc3ccc(CCOc4cc(-c5ccccc5O)nnc4N)cc3)no2)C(C)C)cc1` [Compound 230, (2S,4R)-1-((R)-2-(3-(2-((3-((4-(2-((3-amino-6-(2-hydroxyphenyl)pyridazin-4-yl)oxy)ethyl)benzyl)amino)-3-oxopropyl)amino)ethoxy)isoxazol-5-yl)-3-methylbutanoyl)-4-hydroxy-N-((S)-1-(4-(4-methylthiazol-5-yl)phenyl)ethyl)pyrrolidine-2-carboxamide] was run?
A: The value was “A (“A” indicates maximum degradation ≥75%)”.

Q: What about the DC50 [1] of the same compound?
A: The DC50 was over 100 nM.

Q: What about the DC50 [2] of the same compound?
A: The DC50 was over 1000 nM.

Q: What about the Dmax [2] of the same compound?
A: Its Dmax is over 75%.

Q: With `Cc1ncsc1-c1ccc([C@H](C)NC(=O)[C@@H]2C[C@@H](O)CN2C(=O)[C@@H](c2cc(OCCN3CCC4(CC3)CC(C(=O)NCc3ccc(CCOc5cc(-c6ccccc6O)nnc5N)cc3)C4)no2)C(C)C)cc1` [Compound 195, N-(4-(2-((3-amino-6-(2-hydroxyphenyl)pyridazin-4-yl)oxy)ethyl)benzyl)-7-(2-((5-((R)-1-((2S,4R)-4-hydroxy-2-(((S)-1-(4-(4-methylthiazol-5-yl)phenyl)ethyl)carbamoyl)pyrrolidin-1-yl)-3-methyl-1-oxobutan-2-yl)isoxazol-3-yl)oxy)ethyl)-7-azaspiro[3.5]nonane-2-carboxamide] as the compound, how does the “BRM HiBit Degradation Maximum (%)” value [1] read?
A: The value was “A (“A” indicates maximum degradation ≥75%)”.

Q: And the DC50 [1]?
A: The DC50 was over 10 nM.

Q: What about the DC50 [2] of the same compound?
A: The DC50 was over 100 nM.

Q: And the Dmax [2]?
A: Its Dmax is over 75%.
